Measured values taken from PMC8624523, “Novel GPR120 Agonists with Improved Pharmacokinetic Profiles for the Treatment of Type 2 Diabetes” (Molecules, 2021).
Read-outs that look alike come from different tables or passages of the source.

Key:
human GPR120 = target: T1, human GPR120 (Homo sapiens, UniProt Q5NUL3); experiment: Ca2+ influx assay in CHO cells stably expressing human GPR120; type: cell-based; settings: CHO cells expressing human GPR120, Ca2+ signal, mean of three determinations
T1 construct: expressed in transfected cells
T1 sequence (Q5NUL3 1-361): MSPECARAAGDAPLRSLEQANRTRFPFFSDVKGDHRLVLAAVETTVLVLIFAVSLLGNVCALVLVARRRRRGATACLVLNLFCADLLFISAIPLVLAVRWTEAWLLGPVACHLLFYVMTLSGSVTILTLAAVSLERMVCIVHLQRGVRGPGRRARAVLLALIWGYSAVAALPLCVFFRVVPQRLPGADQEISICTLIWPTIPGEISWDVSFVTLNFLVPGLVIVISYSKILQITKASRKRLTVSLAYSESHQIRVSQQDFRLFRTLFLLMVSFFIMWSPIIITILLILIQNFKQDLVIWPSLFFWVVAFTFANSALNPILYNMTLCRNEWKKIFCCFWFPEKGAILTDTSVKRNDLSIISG
Description: Chinese hamster ovary (CHO) cells stably expressing human GPR120 were suspended in growth media at a concentration of 1 × 10^6 per mL. […] The cell plate was removed from the incubator, the medium was gently discarded, and the wells were washed with 100 μL of Hank’s balanced salt solution (HBSS) per well. The cells were then incubated in HBSS containing fluorescent calcium indicator Fluo-4 AM (2.5 μg/mL) and probenecid (2.5 mmol/L) for 90 min. […] The test compounds at various concentrations were added to the cells, and intracellular Ca^2+ concentrations were measured using FlexStation3 Molecular Devices. The GPR120 agonistic activities of the test compounds were expressed as A/B (increase in the intracellular Ca^2+ concentration (A) in the test compound-treated cells and (B) in vehicle-treated cells). The EC50 value of each compound was calculated using Prism software (version 5.0; GraphPad Software, San Diego, CA, USA).

hGPR40 [1] = target: T2, hGPR40 (Homo sapiens, UniProt O14842); experiment: Calcium influx assay on hGPR40-expressing CHO cells; type: cell-based; settings: for Selectivity: GPR40 EC50 over GPR120 EC50; for EC50: hGPR40-expressing CHO cells, calcium influx, mean of three determinations, read-out: GPR40 (EC50)
T2 construct: expressed in transfected cells; host or cells: CHO cells

hGPR120 = tested on: hGPR120; set-up: method as in PMID 22519963, PMID 29100735, PMID 28642104, PMID 28947942, PMID 28374589; settings: Figure 1, literature values; cited from earlier work
hGPR40 [2] = target: T2, hGPR40; set-up: method as in PMID 22519963, PMID 29100735, PMID 28642104, PMID 28947942, PMID 28374589; settings: cited from earlier work
[3] = Pharmacokinetic analysis in C57BL/6 mice after gavage administration; type: in vivo; settings: male, mouse, plasma, po, 10 mg/kg gavage, 0.5% MC; for AUC / Cmax / half-life: mean ± SEM of four mice
Description: Plasma was collected with a pipette and the proteins in the plasma were precipitated with two volumes of acetonitrile containing an internal standard. This was followed by centrifugation at 15.680 g for 10 min after vortexing for 5 min. The supernatant was diluted with acetonitrile and 10 μL of supernatant was analyzed by Waters LC-PDA-MS/MS to determine plasma drug levels. Pharmacokinetic parameters were determined using the mean data from four mice at each time point. Statistical analysis of the data was performed using the DAS 2.1.1 statistical software program (BioVoice, Shanghai, China).

normal ICR mice = experiment: Oral glucose tolerance test in normal ICR mice; type: in vivo; settings: fasted ICR mice
Description: Male ICR starved overnight (12 h) were weighed and randomly divided into six groups (eight mice per group). […] Blood samples were collected via the tail tip before drug administration (-30 min), before glucose loading (time 0), and 15, 30, 60, and 120 min after glucose loading. Blood glucose levels were measured using blood glucose test strips (Sannuo GA-3 type, Changsha, China).

DIO mice = experiment: Anti-hyperglycemic effects (oGTT) in diet-induced obese (DIO) mice; type: in vivo, C57BL/6 mice; settings: fasted DIO mice, 20 mg/kg gavage 30 min before oral glucose 2 g/kg
Description: After 1 week of adaptation, male C57BL/6 mice weighing 18–22 g, were fed a high-fat diet (45% calories from fat, from Mediscience Ltd., Yangzhou, China) ad libitum for an additional 8 weeks to induce insulin resistance. […] Blood samples were collected and measured in accordance with the oral glucose tolerance test in normal ICR mice.

T2 sequence (O14842 whole entry): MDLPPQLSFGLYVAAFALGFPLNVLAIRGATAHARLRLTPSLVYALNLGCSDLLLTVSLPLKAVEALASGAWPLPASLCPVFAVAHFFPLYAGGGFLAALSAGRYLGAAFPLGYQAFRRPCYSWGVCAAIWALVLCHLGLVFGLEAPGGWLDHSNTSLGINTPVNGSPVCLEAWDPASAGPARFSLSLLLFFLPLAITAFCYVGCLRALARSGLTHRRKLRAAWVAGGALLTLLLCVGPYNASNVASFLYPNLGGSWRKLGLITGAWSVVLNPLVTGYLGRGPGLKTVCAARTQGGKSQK

| Compound | EC50 (human GPR120) | melting point | also measured |
| --- | --- | --- | --- |
| Cc1ccc(-c2ccc(F)cc2COc2ccc(CC(C)C(=O)O)cc2)cc1 (stereo not drawn) [Compound 1f, 3-(4-((4-Fluoro-4′-methyl-[1,1′-biphenyl]-2-yl)methoxy)phenyl)-2-methylpropanoic acid] | 0.146 µM | 103 to 104 °C |  |
| O=C(O)CCc1cc(F)c(OCc2c(-c3ccc(Cl)cc3F)nsc2C(F)(F)F)c(F)c1 [Compound 3] |  |  | EC50 (hGPR120): 0.042 µM; EC50 (hGPR40 [2]; Figure 1, literature value): > 5 µM |
| Cc1ccc(-n2nc(C)c3cnc(-c4ccc([C@H]5C[C@@H]5C(=O)O)cc4)cc32)nc1 [Compound 4] |  |  | EC50 (hGPR120): 0.74 µM; EC50 (hGPR40 [2]; Figure 1, literature values): > 100 µM |
| CO[C@H]1C[C@H](Oc2cc(F)c(F)c(-c3c(F)cc(OCCCC(=O)O)cc3F)c2)C1 [Compound 5] |  |  | EC50 (hGPR120): 0.093 µM; EC50 (hGPR40 [2]; Figure 1, literature values): > 100 µM |
| O=S1(=O)c2ccccc2CN1c1cc(F)cc(Oc2ccccn2)c1 [Compound 6] |  |  | EC50 (hGPR120): 0.123 µM; hGPR40 activity (hGPR40 [2]; at 100 uM, Figure 1, literature value): inactive |
| CC(CC(=O)O)c1ccc(OCC(=O)N2CCCc3ccccc32)cc1 (stereo not drawn) [Compound 11a, 3-(4-(2-(3,4-Dihydroquinolin-1(2H)-yl)-2-oxoethoxy)phenyl)butanoic acid] | 0.113 µM | 117 to 118 °C |  |
| CC(CC(=O)O)c1ccc(OCC(=O)N2CCCc3cc(F)ccc32)cc1 (stereo not drawn) [Compound 11d, 3-(4-(2-(6-Fluoro-3,4-dihydroquinolin-1(2H)-yl)-2-oxoethoxy)phenyl)butanoic acid] | 0.187 µM | 124 to 130 °C |  |
| Cc1cc(OCC(=O)N2CCCc3ccccc32)ccc1OCC(=O)O [Compound 11e, 2-(4-(2-(3,4-Dihydroquinolin-1(2H)-yl)-2-oxoethoxy)-2-methylphenoxy)acetic acid] | 0.255 µM | 138 to 139 °C |  |
| Cc1cc(OCC(=O)N2CCCc3cc(F)ccc32)ccc1OCC(=O)O [Compound 11f, 2-(4-(2-(6-Fluoro-3,4-dihydroquinolin-1(2H)-yl)-2-oxoethoxy)-2-methylphenoxy)acetic acid] | 0.204 µM | 152 to 153 °C |  |
| COc1ccc2c(c1)CCCN2C(=O)COc1ccc(OCC(=O)O)c(C)c1 [Compound 11h, 2-(4-(2-(6-Methoxy-3,4-dihydroquinolin-1(2H)-yl)-2-oxoethoxy)-2-methylphenoxy)acetic acid] | 0.146 µM | 141 to 142 °C |  |

Now from value to molecule, other results behind:

| EC50 (human GPR120) | melting point | Compound | also measured |
| --- | --- | --- | --- |
| 0.0528 µM | 100 to 101 °C | Cc1ccc(-c2ccc(F)cc2COc2ccc(C(C)CC(=O)O)cc2)cc1 (stereo not drawn) [Compound 2f, 3-(4-((4-Fluoro-4′-methyl-[1,1′-biphenyl]-2-yl)methoxy)phenyl)butanoic acid] | Selectivity (hGPR40 [1]): 1373; EC50 (hGPR40 [1]): 72.5 µM |
| 0.0902 µM | 116 to 117 °C | Cc1ccc(-c2ccc(F)cc2COc2ccc(CCC(=O)O)c(C)c2)cc1 [Compound 3f, 3-(4-((4-Fluoro-4′-methyl-[1,1′-biphenyl]-2-yl)methoxy)-2-methylphenyl)propanoic acid] |  |
| 0.11 µM | 101 to 102 °C | Cc1ccc(-c2ccc(F)cc2COc2ccc(CCC(=O)O)c(F)c2)cc1 [Compound 4f, 3-(2-Fluoro-4-((4-fluoro-4′-methyl-[1,1′-biphenyl]-2-yl)methoxy)phenyl)propanoic acid] |  |
| 0.103 µM | 119 to 120 °C | Cc1ccc(-c2ccc(F)cc2COc2ccc(OCC(=O)O)cc2)cc1 [Compound 5f, 2-(4-((4-Fluoro-4′-methyl-[1,1′-biphenyl]-2-yl)methoxy)phenoxy)acetic acid] |  |
| 0.0727 µM | 115 to 116 °C | Cc1ccc(-c2ccc(F)cc2COc2ccc(OCC(=O)O)c(C)c2)cc1 [Compound 6f, 2-(4-((4-Fluoro-4′-methyl-[1,1′-biphenyl]-2-yl)methoxy)-2-methylphenoxy)acetic acid] | Selectivity (hGPR40 [1]): 810; EC50 (hGPR40 [1]): 58.9 µM |
| 0.106 µM | 109 to 110 °C | Cc1ccc(-c2ccc(F)cc2COc2ccc(OCC(=O)O)c(F)c2)cc1 [Compound 7f, 2-(2-Fluoro-4-((4-fluoro-4′-methyl-[1,1′-biphenyl]-2-yl)methoxy)phenoxy)acetic acid] |  |
| 0.0712 µM | 115 to 116 °C | Cc1ccc2c(c1)CCCN2C(=O)COc1ccc(C(C)CC(=O)O)cc1 (stereo not drawn) [Compound 11b, 3-(4-(2-(6-Methyl-3,4-dihydroquinolin-1(2H)-yl)-2-oxoethoxy)phenyl)butanoic acid] | Selectivity (hGPR40 [1]): 1159; EC50 (hGPR40 [1]): 82.5 µM; Tmax [3]: 0.5 h; AUC [3]: 9050 ± 435 ng·h/mL; Cmax [3]: 2530 ± 115 ng/mL; half-life [3]: 1.78 ± 0.42 h; anti-hyperglycemic effects compared with TUG-891 (normal ICR mice; 30 mg/kg, at 30 min after the oral glucose challenge): better than TUG-891; hypoglycemia (normal ICR mice; dose of 100 mg/kg by gavage): no hypoglycemia was observed; blood glucose during oGTT (normal ICR mice; gavage 20 mg/kg 30 min before oral glucose 3.0 g/kg): significantly reduced blood glucose; blood glucose levels during oGTT (normal ICR mice; gavage 10, 20, 30 and 100 mg/kg 30 min before oral glucose 3.0 g/kg): lowered the blood glucose levels in a dose-dependent manner; anti-diabetic effects (blood glucose during oGTT) (DIO mice): equivalent to TUG-891; insulin levels at 30 min after oral administration of glucose (DIO mice): significantly increased insulin levels |
| 0.0996 µM | 141 to 142 °C | COc1ccc2c(c1)CCCN2C(=O)COc1ccc(C(C)CC(=O)O)cc1 (stereo not drawn) [Compound 11c, 3-(4-(2-(6-Methoxy-3,4-dihydroquinolin-1(2H)-yl)-2-oxoethoxy)phenyl)butanoic acid] |  |
| 0.0834 µM | 147 to 148 °C | Cc1ccc2c(c1)CCCN2C(=O)COc1ccc(OCC(=O)O)c(C)c1 [Compound 11g, 2-(2-Methyl-4-(2-(6-methyl-3,4-dihydroquinolin-1(2H)-yl)-2-oxoethoxy)phenoxy)acetic acid] | Selectivity (hGPR40 [1]): 1036; EC50 (hGPR40 [1]): 86.4 µM; Tmax [3]: 0.5 h; AUC [3]: 6710 ± 467 ng·h/mL; Cmax [3]: 1850 ± 102 ng/mL; half-life [3]: 1.52 ± 0.37 h |
